Test results as given in patent US10179794B2, “Thieno[3,2-d]pyrimidine, furo[3,2-d]pyrimidine, and pyrrolo[3,2-D]pyrimidines useful for treating respiratory syncitial virus infections” (Gilead Sciences, Inc., priority 2014, dated 2019).
Read-outs that look alike come from different tables or passages of the source.

What was measured:
MT-4 cells = assay: Cytotoxicity assay in MT-4 cells; type: cell-based; conditions: 5 days, Cell-Titer Glo
Procedure: (§1) The MT-4 cell line was obtained from the NIH AIDS Research and Reference Reagent Program (Germantown, Md.) and cultured in RPMI-1640 medium (Irvine Scientific, Santa Ana, Calif., Cat #9160) supplemented with 10% FBS, 100 units/mL penicillin, 100 units/mL streptomycin, and 2 mM L-Glutamine. The MT-4 cells were passaged twice per week to maintain cell densities below 0.6×10^6 cells/mL. Complete RPMI-1640 media containing 100× concentrations of 3-fold serially diluted compound, ranging from 26 nM to 530 μM, were stamped in quadruplicate into black 384-well plates. After compound addition, 2×10^3 MT-4 cells were added to each well using a MicroFlo liquid dispenser (BioTek, Winooski, Vt.) and the cells were cultured for 5 days at 37° C. in a 5% CO2 incubator. Following the incubation the cells were allowed to equilibrate to 25° C. and cell viability was determined by adding 25 μL of Cell-Titer Glo viability reagent. The mixture was incubated for 10 minutes at 25° C., and the luminescence signal was quantified on a Victor Luminescence plate reader. The CC50 value is defined as the concentration of compound that reduces cell viability by 50% as determined by the Cell-Titer Glo signal. The data were analyzed using Pipeline Pilot Plate Data Analytics Collection software (Version 7.0, Accelrys, San Diego, Calif.). CC50 values were calculated from a non-linear regression analysis using a 4-parameter sigmoidal dose-response equation: Y=Bottom+(Top-Bottom)/(1+10^[(LogCC50-X)*HillSlope]) where the Top and Bottom were fixed at 100% and 0% cell viability, respectively. CC50 values were calculated as the average± standard deviation of 3 independent experiments.

RSV strain A2 = assay: Anti-RSV activity, infectious cytopathic cell protection assay in HEp-2 cells; type: cell-based, Respiratory Syncytial Virus (RSV)
Procedure: Antiviral activity against RSV is determined using an infectious cytopathic cell protection assay in HEp-2 cells. In this assay, compounds inhibiting viral infection and/or replication produce a cytoprotective effect against the virus-induced cell killing that can be quantified using a cell viability reagent. The techniques used here are novel adaptations of methods described in published literature (Chapman et al., Antimicrob Agents Chemother. 2007, 51 (9):3346-53.)
HEp-2 cells are obtained from ATCC (Manassas, Va.) and maintained in MEM media supplemented with 10% fetal bovine serum and penicillin/streptomycin. Cells are passaged twice a week and kept at subconfluent stage. Commercial stock of RSV strain A2 (Advanced Biotechnologies, Columbia, Md.) is titered before compound testing to determine the appropriate dilution of the virus stock that generates desirable cytopathic effect in HEp-2 cells.
For antiviral tests, HEp-2 cells are grown in large cell culture flasks to near confluency but not fully so. The compounds to be tested are prediluted in DMSO in 384-well compound dilution plates, either in an 8 or 40 sample per plate standardized dose response format. 3-fold serial dilution increments of each test compound are prepared in the plates and test samples are transferred via acoustic transfer apparatus (Echo, Labcyte) at 100 nl per well into cell culture assay 384-well plates. Each compound dilution is transferred in single or quadruplicate samples into dry assay plates, which are stored until assay is ready to go. The positive and negative controls are laid out in opposite on ends of the plate in vertical blocks (1 column).
Subsequently, an infectious mixture is prepared using an appropriate dilution of virus stock previously determined by titration with cells at a density of 50,000/ml and 20 uL/well is added to test plates w/compounds via automation (uFlow, Biotek). Each plate includes negative and positive controls (16 replicates each) to create 0% and 100% virus inhibition standards, respectively. Following the infection with RSV, testing plates are incubated for 4 days in a 37° C. cell culture incubator. After the incubation, a cell viability reagent, Cell TiterGlo (Promega, Madison, Wis.) is added to the assay plates, which are incubated briefly, and a luminescent readout is measured (Envision, Perkin Elmer) in all the assay plates. The RSV-induced cytopathic effect, percentage inhibition, is determined from the levels of remaining cell viability. These numbers are calculated for each tested concentration relative to the 0% and 100% inhibition controls, and the EC50 value for each compound is determined by non-linear regression as a concentration inhibiting the RSV-induced cytopathic effect by 50%. Various potent anti-RSV tool compounds are used as positive controls for antiviral activity.

HEp-2 cells = assay: Cytotoxicity assay in HEp-2 cells; type: cell-based; conditions: uninfected HEp-2 cells, 4 days, CellTiter Glo
Procedure: (§2) Cytotoxicity of tested compounds is determined in uninfected HEp-2 cells in parallel with the antiviral activity using the cell viability reagent in a similar fashion as described before for other cell types (Cihlar et al., Antimicrob Agents Chemother. 2008,52(2):655-65.). The same protocol as for the determination of antiviral activity is used for the measurement of compound cytotoxicity except that the cells are not infected with RSV. Instead, an uninfected cell mixture at the same density is added at 20 ul/well to plates containing prediluted compounds, also at 100 nl/sample. Assay plates are then incubated for 4 days followed by a cell viability test using the same CellTiter Glo reagent addition and measurement of luminescent readouts. Untreated cell and cells treated at 2 uM puromycin (Sigma, St. Louis, Mo.) serve as 100% and 0% cell viability control, respectively. The percent of cell viability is calculated for each tested compound concentration relative to the 0% and 100% controls and the CC50 value is determined by non-linear regression as a compound concentration reducing the cell viability by 50%.

[1] = Cytotoxicity assay in MT-4 cells; type: cell-based; conditions: human, Cell-Titer Glo
Procedure: as §1

[2] = Cytotoxicity assay in HEp-2 cells; type: cell-based; conditions: human, uninfected HEp-2 cells, CellTiter Glo
Procedure: as §2

[3] = biological target: T1, RSV ribonucleoprotein (RNP) complexes (Human respiratory syncytial virus A, UniProt P28887); assay: RSV RNP assay (inhibition of RSV RNP transcription); type: biochemical, RSV A2; conditions: crude RSV RNP complexes, 90 minute incubation at 30° C., total radiolabled transcripts reduced by 50%
T1 construct: The supernatant (S3) fraction, containing the enriched RSV RNP complexes, was collected; endogenous in cells; host or cells: HEp-2 cells infected with RSV A2; detergent-extracted S3 fraction (crude RNP)
Procedure: RSV ribonucleoprotein (RNP) complexes were prepared from a method modified from Mason et al (1). HEp-2 cells were plated at a density of 7.1×10^4 cells/cm^2 in MEM+10% fetal bovine serum (FBS) and allowed to attach overnight at 37° C. (5% CO2). Following attachment, the cells were infected with RSV A2 (MOI=5) in 35 mL MEM+2% FBS. At 20 hours post-infection, the media was replaced with MEM+2% FBS supplemented with 2 m/mL actinomycin D and returned to 37° C. for one hour. The cells were then washed once with PBS and treated with 35 mL of PBS+250 m/mL lyso-lecithin for one minute, after which all liquid was aspirated. The cells were harvested by scrapping them into 1.2 mL of buffer A [50 mM TRIS acetate (pH 8.0), 100 mM potassium acetate, 1 mM DTT and 2 m/mL actinomycin D] and lysed by repeated passage through an 18 gauge needle (10 times). The cell lysate was placed in ice for 10 minutes and then centrifuged at 2400 g for 10 minutes at 4° C. The supernatant (S1) was removed and the pellet (P1) was disrupted in 600 uL of Buffer B [10 mM TRIS acetate (pH 8.0), 10 mM potassium acetate and 1.5 mM MgCl2] supplemented with 1% Triton X-100 by repeated passage through an 18 gauge needle (10 times). The resuspended pellet was placed in ice for 10 minutes and then centrifuged at 2400 g for 10 minutes at 4° C. The supernatant (S2) was removed and the pellet (P2) was disrupted in 600 uL of Buffer B supplemented with 0.5% deoxycholate and 0.1% Tween 40. The resuspended pellet was placed in ice for 10 minutes and then centrifuged at 2400 g for 10 minutes at 4° C. The supernatant (S3) fraction, containing the enriched RSV RNP complexes, was collected and the protein concentration determined by UV absorbance at 280 nm. Aliquoted RSV RNP S3 fractions were stored at −80° C.
Transcription reactions contained 25 μg of crude RSV RNP complexes in 30 μL of reaction buffer [50 mM TRIS-acetate (pH 8.0), 120 mM potassium acetate, 5% glycerol, 4.5 mM MgCl2, 3 mM DTT, 2 mM ethyleneglycol-bis(2-aminoethylether)-tetraacetic acid (EGTA), 50 μg/mL BSA, 2.5 U RNasin (Promega), ATP, GTP, UTP, CTP and 1.5 uCi [α-^32P] NTP (3000 Ci/mmol)]. The radiolabled nucleotide used in the transcription assay was selected to match the nucleotide analog being evaluated for inhibition of RSV RNP transcription. Cold, competitive NTP was added at a final concentration of one-half its Km (ATP=20 μM, GTP=12.5 μM, UTP=6 μM and CTP=2 μM). The three remaining nucleotides were added at a final concentration of 100 μM.
To determine whether nucleotide analogs inhibited RSV RNP transcription, compounds were added using a 6 step serial dilution in 5-fold increments. Following a 90 minute incubation at 30° C., the RNP reactions were stopped with 350 μL of Qiagen RLT lysis buffer and the RNA was purified using a Qiagen RNeasy 96 kit. […]

[4] = human respiratory syncytial virus, 96 h, RSV A2-induced cytopathic effect in HEp-2 cells, 4 days, Cell TiterGlo, read-out: EC50

T1 sequence (P28887 whole entry): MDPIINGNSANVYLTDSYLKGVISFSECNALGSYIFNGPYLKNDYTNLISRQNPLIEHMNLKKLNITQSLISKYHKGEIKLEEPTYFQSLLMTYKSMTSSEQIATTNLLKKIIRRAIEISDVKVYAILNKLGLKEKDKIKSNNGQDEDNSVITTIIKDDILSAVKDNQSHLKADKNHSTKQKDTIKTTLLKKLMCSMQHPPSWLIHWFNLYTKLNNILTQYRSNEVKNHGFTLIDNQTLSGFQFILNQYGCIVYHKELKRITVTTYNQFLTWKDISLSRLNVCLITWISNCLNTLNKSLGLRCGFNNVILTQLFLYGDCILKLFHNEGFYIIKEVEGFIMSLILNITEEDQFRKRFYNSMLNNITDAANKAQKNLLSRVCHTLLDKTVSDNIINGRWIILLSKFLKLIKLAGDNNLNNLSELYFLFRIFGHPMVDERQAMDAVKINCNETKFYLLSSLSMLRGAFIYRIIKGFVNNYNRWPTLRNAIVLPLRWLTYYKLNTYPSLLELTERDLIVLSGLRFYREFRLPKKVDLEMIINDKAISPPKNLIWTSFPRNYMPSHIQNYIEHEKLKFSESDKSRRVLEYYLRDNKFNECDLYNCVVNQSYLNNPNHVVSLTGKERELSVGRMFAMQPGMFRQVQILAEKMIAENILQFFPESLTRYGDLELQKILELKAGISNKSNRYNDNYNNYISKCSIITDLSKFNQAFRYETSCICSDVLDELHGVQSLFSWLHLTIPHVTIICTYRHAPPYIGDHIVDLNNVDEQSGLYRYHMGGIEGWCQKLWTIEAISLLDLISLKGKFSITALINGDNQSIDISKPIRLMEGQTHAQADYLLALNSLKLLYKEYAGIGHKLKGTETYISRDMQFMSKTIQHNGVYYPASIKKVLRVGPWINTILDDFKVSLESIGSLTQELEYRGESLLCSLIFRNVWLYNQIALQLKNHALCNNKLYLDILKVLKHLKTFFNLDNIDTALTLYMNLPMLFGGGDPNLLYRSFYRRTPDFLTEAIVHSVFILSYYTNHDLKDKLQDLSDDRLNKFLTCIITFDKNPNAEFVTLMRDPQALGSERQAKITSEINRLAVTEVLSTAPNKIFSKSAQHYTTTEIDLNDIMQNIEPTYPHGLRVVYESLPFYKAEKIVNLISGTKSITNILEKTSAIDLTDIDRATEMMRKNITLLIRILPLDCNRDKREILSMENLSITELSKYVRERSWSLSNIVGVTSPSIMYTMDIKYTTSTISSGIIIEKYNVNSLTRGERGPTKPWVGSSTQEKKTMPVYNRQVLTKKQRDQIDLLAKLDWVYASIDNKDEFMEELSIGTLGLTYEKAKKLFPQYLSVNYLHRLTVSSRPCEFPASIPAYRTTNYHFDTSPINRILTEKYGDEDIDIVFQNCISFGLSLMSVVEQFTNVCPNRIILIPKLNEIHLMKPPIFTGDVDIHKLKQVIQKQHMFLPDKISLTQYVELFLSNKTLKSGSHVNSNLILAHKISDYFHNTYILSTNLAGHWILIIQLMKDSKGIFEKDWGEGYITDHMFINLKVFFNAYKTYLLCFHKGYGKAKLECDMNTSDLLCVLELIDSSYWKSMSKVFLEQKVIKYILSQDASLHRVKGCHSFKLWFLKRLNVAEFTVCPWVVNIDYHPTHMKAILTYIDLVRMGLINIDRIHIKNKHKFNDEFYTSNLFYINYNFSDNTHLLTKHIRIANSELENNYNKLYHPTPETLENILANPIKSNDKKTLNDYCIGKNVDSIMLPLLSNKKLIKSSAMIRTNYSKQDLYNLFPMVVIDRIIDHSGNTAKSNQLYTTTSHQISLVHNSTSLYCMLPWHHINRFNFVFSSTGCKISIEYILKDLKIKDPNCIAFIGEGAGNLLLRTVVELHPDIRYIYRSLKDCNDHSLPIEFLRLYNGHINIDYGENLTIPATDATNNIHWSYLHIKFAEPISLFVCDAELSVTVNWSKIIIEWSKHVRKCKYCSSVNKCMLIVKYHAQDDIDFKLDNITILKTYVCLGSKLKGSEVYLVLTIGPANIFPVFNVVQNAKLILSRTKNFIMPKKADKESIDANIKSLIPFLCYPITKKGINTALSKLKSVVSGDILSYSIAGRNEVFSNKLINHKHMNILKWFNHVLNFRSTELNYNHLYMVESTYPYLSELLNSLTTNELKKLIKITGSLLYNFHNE
T1 sequence (P03421 whole entry, further chain): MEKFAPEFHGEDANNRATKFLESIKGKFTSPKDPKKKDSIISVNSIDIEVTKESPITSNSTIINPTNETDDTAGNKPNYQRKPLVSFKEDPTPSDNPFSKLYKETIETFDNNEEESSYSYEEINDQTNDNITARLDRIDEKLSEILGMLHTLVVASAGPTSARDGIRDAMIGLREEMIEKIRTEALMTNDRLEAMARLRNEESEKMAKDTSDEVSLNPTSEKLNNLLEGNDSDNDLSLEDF

EC50 (RSV strain A2; [4]) [µM] | SMILES | CC50 at 5 days [1] [µM] | CC50 at 4 days [2] [µM] | IC50 [3] [µM] | other results
 | N#C[C@]1(CO)O[C@@H](c2csc3c(N)ncnc23)[C@H](F)[C@@H]1O [Example 2, (2R,3R,4R,5S)-5-(4-aminothieno[3,2-D]pyrimidin-7-yl)-4-fluoro-3-hydroxy-2-(hydroxymelthyl)tetrahydrofuran-2-carbonitrile] |  |  |  | CC50 (MT-4 cells): > 114 µM; EC50 (RSV strain A2; RSV A2-induced cytopathic effect in HEp-2 cells, 4 days, Cell TiterGlo, read-out: EC50): 6.5 µM; CC50 (HEp-2 cells): > 100 µM
5 | N#C[C@]1(CO)O[C@@H](c2csc3c(N)ncnc23)[C@H](O)[C@@H]1O [Example 3, (2R,3S,4R,5S)-5-(4-aminothieno[3,2-d]pyrimidin-7-yl)-3,4-dihydroxy-2-(hydroxymelthyl)tetrahydrofuran-2-carbonitrile] | > 57 | > 50 |  | 
 | N#C[C@]1(COP(=O)(O)OP(=O)(O)OP(=O)(O)O)O[C@@H](c2csc3c(N)ncnc23)[C@H](F)[C@@H]1O [Example TP2, ((2R,3R,4R,5S)-5-(4-aminothieno[3,2-d]pyrimidin-7-yl)-2-cyano-4-fluoro-3-hydroxytetrahydrofuran-2-yl)methyl tetrahydrogen triphosphate] |  |  | 0.042 | 
 | N#C[C@]1(COP(=O)(O)OP(=O)(O)OP(=O)(O)O)O[C@@H](c2csc3c(N)ncnc23)[C@H](O)[C@@H]1O [Example TP3, ((2R,3S,4R,5S)-5-(4-aminothieno[3,2-d]pyrimidin-7-yl)-2-cyano-3,4-dihydroxytetrahydrofuran-2-yl)methyl tetrahydrogen triphosphate] |  |  | 0.036 | 
 | CCOC(=O)[C@H](C)NP(=O)(OC[C@@]1(N=[N+]=[N-])O[C@@H](c2csc3c(N)ncnc23)[C@H](F)[C@@H]1O)Oc1ccccc1 (stereo partly drawn) [Example PD1, (2S)-ethyl 2-(((((2R,3R,4R,5S)-5-(4-aminothieno[3,2-d]pyrimidin-7-yl)-2-azido-4-fluoro-3-hydroxytetrahydrofuran-2-yl)methoxy)(phenoxy)phosphoryl)amino)propanoate] | 10.4 | > 50 |  | EC50 (RSV strain A2; human respiratory syncytial virus, HEp-2, 96 h): 0.556 µM
 | [N-]=[N+]=N[C@]1(COP(=O)(O)OP(=O)(O)OP(=O)(O)O)O[C@@H](c2csc3c(N)ncnc23)[C@H](F)[C@@H]1O [Example TP1, ((2R,3R,4R,5S)-5-(4-aminothieno[3,2-d]pyrimidin-7-yl)-2-azido-4-fluoro-3-hydroxytetrahydrofuran-2-yl)methyl tetrahydrogen triphosphate] |  |  | 0.076 | 
 | [N-]=[N+]=N[C@]1(COP(=O)(O)OP(=O)(O)OP(=O)(O)O)O[C@@H](c2csc3c(N)ncnc23)[C@H](Cl)[C@@H]1O [Example TP4, ((2R,3R,4R,5S)-5-(4-aminothieno[3,2-d]pyrimidin-7-yl)-2-azido-4-chloro-3-hydroxytetrahydrofuran-2-yl)methyl tetrahydrogen triphosphate] |  |  | 0.2 | 
0.208 | [N-]=[N+]=N[C@]1(CO)O[C@@H](c2csc3c(N)ncnc23)[C@H](F)[C@@H]1O [Example 1, (2R,3R,4R,5S)-5-(4-aminothieno[3,2-d]pyrimidin-7-yl)-2-azido-4-fluoro-2-(hydroxymethyl)-tetrahydrofuran-3-ol] | 59 | > 100 |  | 
> 98 | [N-]=[N+]=N[C@]1(CO)O[C@@H](c2csc3c(N)ncnc23)[C@H](Cl)[C@@H]1O [Example 4, (2R,3R,4R,5S)-5-(4-Aminothieno[3,2-d]pyrimidin-7-yl)-2-azido-4-chloro-2-(hydroxymethyl)tetrahydrofuran-3-ol] | 93 | > 93 |  | 
